Experimental data reported in US20220340633A1 (Adepthera LLC, priority 2016, published 2022).
Entries after “also recorded” stand apart in the source; their conditions may differ.

Columns and labels:
CLR/RAMP3 receptor [1] = target: T1, CLR/RAMP3 receptor (Homo sapiens, UniProt O60896+Q16602); settings: antagonist mode
Method: (§1) Using a receptor activation assay, the dose-dependent stimulatory response of peptide agonists of the present invention on a CLR/RAMP1 receptor, a CLR/RAMP2, or a CLR/RAMP3 receptor complex was determined. A cell line carrying the recombinant CLR/RAMP1, CLR/RAMP2, or a CLR/RAMP3 receptor was employed in the assay. Peptide agonist activities were tested, in duplicate, at 10 different concentrations, starting with 1.0 μM and serially diluted 3-fold, in DMSO. […] The CLR/RAMP1 cAMP, CLR/RAMP2 arrestin assays, and CLR/RAMP3 cAMP (DiscoveRx, Fremont, Calif.) were used.
For the analysis of antagonistic activity, the synthetic analogs were pre-incubated with the cells before adding the reference ligand at its EC80.

CLR/RAMP2 receptor = target: T2, CLR/RAMP2 receptor (Homo sapiens, UniProt O60895+Q16602); test: CLR/RAMP2 arrestin receptor activation assay (agonist); assay type: cell-based
T2 construct: host or cells: CHO-K1 cells
T2 sequence (Q16602 23-461): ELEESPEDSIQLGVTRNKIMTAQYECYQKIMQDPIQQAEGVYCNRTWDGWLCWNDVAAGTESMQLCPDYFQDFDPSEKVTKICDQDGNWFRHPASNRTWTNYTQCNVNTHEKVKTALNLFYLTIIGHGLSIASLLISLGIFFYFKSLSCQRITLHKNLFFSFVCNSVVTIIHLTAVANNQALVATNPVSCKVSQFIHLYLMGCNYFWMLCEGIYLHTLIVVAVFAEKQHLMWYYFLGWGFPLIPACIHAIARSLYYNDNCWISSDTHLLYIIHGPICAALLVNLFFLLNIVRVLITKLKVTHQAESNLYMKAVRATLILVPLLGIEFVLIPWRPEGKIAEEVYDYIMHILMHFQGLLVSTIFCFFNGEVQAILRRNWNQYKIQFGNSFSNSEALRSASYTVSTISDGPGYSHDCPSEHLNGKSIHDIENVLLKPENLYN
T2 sequence (O60895 43-175): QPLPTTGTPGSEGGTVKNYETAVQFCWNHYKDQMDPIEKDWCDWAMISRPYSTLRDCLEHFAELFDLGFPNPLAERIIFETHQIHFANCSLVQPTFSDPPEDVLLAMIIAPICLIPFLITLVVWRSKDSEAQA

[2] = test system: primary human lymphatic endothelia cells (HLEC); test: HLEC survival in medium with 0.1% FBS, MTS assay; settings: 30, 100, and 300 nM, 72 hrs
Method: (§2) The cells were cultured for 72 hrs, and cell viability was assayed with the MTS assay (Promega).

CLR/RAMP1 receptor = CLR/RAMP1 receptor (Homo sapiens, UniProt O60894+Q16602); test: CLR/RAMP1 cAMP receptor activation assay (agonist); assay type: cell-based; parameters: host or cells: 1321N1 cells
Chain of CLR/RAMP1 receptor (Q16602 23-461): as the sequence (Q16602 23-461) above
Chain of CLR/RAMP1 receptor (O60894 27-148): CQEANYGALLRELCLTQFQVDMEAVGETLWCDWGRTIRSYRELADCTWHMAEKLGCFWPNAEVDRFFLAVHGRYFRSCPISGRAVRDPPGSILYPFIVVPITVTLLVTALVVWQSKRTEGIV
Method: as §1

CLR/RAMP3 receptor [3] = target: T1, CLR/RAMP3 receptor; test: CLR/RAMP3 cAMP receptor activation assay (agonist); assay type: cell-based; parameters: host or cells: CHO-K1 cells; settings: CHO-K1, read-out: CLR/RAMP 3 Max Activity % of positive control
Method: as §1

[4] = test system: primary human lymphatic endothelia cells (HLEC); test: HLEC proliferation in medium with 2% FBS, MTS assay; settings: 30, 100, and 300 nM, 72 hrs
Method: as §2

T1 sequence (Q16602 23-461): as the sequence (Q16602 23-461) above
T1 sequence (O60896 24-148): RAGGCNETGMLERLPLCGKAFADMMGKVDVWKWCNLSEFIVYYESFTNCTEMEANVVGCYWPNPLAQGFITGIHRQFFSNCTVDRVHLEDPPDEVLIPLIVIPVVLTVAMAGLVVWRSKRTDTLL

| Structure (SMILES) | CLR/RAMP3 Max Activity % of positive control (CLR/RAMP3 receptor [1]) [%] | EC50 (CLR/RAMP2 receptor; CHO-K1 cells stably expressing CLR/RAMP2, arrestin, positive control ADM, read-out: CLR/RAMP 2 EC50) [nM] | CLR/RAMP 2 Max Activity % of positive control (CLR/RAMP2 receptor; CHO-K1 cells, % of positive control (ADM)) [%] | HLEC survival (in words) [2] | Emax (CLR/RAMP1 receptor; 1321-N1, read-out: CLR/RAMP 1 Max Activity % of positive control, 1321N1 cells, % of positive control (β-CGRP)) [%] | EC50 (CLR/RAMP1 receptor; 1321N1 cells stably expressing CLR/RAMP1, cAMP, positive control β-CGRP, read-out: CLR/RAMP 1 EC50) [nM] | Emax (CLR/RAMP3 receptor [3]) [%] | HLEC proliferation (in words) [4] |
| --- | --- | --- | --- | --- | --- | --- | --- | --- |
| CCCCCCCCCCCCCCCC(=O)N[C@@H](CCCCN)C(=O)N[C@H](C(=O)N[C@@H](CCC(N)=O)C(=O)N[C@@H](CCCCN)C(=O)N[C@@H](CC(C)C)C(=O)N[C@@H](C)C(=O)N[C@@H](Cc1c[nH]cn1)C(=O)N[C@@H](CCC(N)=O)C(=O)N[C@@H](CO)C(=O)N[C@@H](C)C(=O)N1CCC[C@H]1C(=O)N[C@H](C(=O)N[C@@H](CC(=O)O)C(=O)N1CCC[C@H]1C(=O)N[C@@H](CO)C(=O)N[C@@H](CO)C(=O)N1CCC[C@H]1C(=O)N[C@@H](Cc1c[nH]cn1)C(=O)N[C@@H](CO)C(=O)N[C@@H](Cc1ccc(O)cc1)C(N)=O)C(C)C)C(C)C [SEQ ID NO: 124] | 102 | – | – | – | – | – | – | – |
| CCCCCCCCCCCCCCCC(=O)NCCCC[C@H](NC(=O)COCCOCCN)C(=O)NCC(=O)N[C@H]1CSSC[C@@H](C(=O)N[C@H](C(=O)N[C@H](C(=O)N[C@@H](CCC(N)=O)C(=O)N[C@@H](CCCCN)C(=O)N[C@@H](CC(C)C)C(=O)N[C@@H](C)C(=O)N[C@@H](Cc2c[nH]cn2)C(=O)N[C@@H](CCC(N)=O)C(=O)N[C@H](C(=O)N[C@@H](Cc2ccc(O)cc2)C(=O)N[C@@H](CCC(N)=O)C(=O)N[C@@H](Cc2ccccc2)C(=O)N[C@H](C(=O)N[C@@H](CC(=O)O)C(=O)N[C@@H](CCCCN)C(=O)N[C@@H](CC(=O)O)C(=O)N[C@@H](CCCCN)C(=O)N[C@@H](CC(=O)O)C(=O)N[C@@H](CC(N)=O)C(=O)N[C@@H](CO)C(=O)N[C@@H](C)C(=O)N2CCC[C@H]2C(=O)N[C@H](C(=O)N[C@@H](CC(=O)O)C(=O)N2CCC[C@H]2C(=O)N[C@@H](CO)C(=O)N[C@@H](CO)C(=O)N2CCC[C@H]2C(=O)N[C@@H](Cc2c[nH]cn2)C(=O)N[C@@H](CO)C(=O)N[C@@H](Cc2ccc(O)cc2)C(N)=O)C(C)C)[C@@H](C)O)[C@@H](C)CC)C(C)C)[C@@H](C)O)NC(=O)[C@H]([C@@H](C)O)NC(=O)CNC(=O)[C@H](Cc2ccccc2)NC(=O)[C@H](CCCNC(=N)N)NC1=O [SEQ ID NO: 28] | – | 0.5 | 143 | dose-dependently stimulated; also recorded: significantly promote | 54 | 0.3 | 117 | dose-dependently stimulated; also recorded: significantly promote |
